Test results from article PMC10887214 (Biomedicines, 2024).

What was measured:
chimeric CB1/2 receptor = experiment: Two-electrode voltage-clamp, chimeric CB1/2-GIRK1/GIRK2-RGS4 coupling system expressed in oocytes; conditions: WIN55,212-2 concentration–response
C57BL/6J mice [1] = experiment: Home cage activity test; assay type: in vivo, mouse; conditions: i.p., OS 2 mg/kg, WIN 0.5 mg/kg, 21 h
Experimental: (§1) Animal housing. Forty-eight Male C57BL/6J mice were purchased from Janvier Labs (Le Genest-Saint-Isle, France) and were time-specifically housed in a 12 h light-dark cycle (lights on at 7 am), with ad libitum water and food in conditioned rooms (22 °C, humidity ~60%).
(§2) Behavior assays. All mice were subjected to a behavioral test battery that consisted of several general performance tasks of locomotor activity, exploratory and anxiety-like behavior, and learning and memory. Mice were divided into four groups: Vehicle, OS (2 mg/kg), WIN55 (0.5 mg/kg), or OS + WIN. Each group consisted of 7–14 mice that received two i.p injections before each test, with a 10 min interval between each injection. Veh + Veh were injected with PBS. Veh + WIN were injected with PBS and WIN55. Veh + OS were injected with PBS and OS. OS + WIN were injected with OS and WIN55. PBS was used as vehicle as it was used for dilution of drugs. Tests were performed in the order described below after 10 min of the last injection, with a 24 h interval between each test.
Cage activity assessment: At P60, animals were moved to the cage activity room for one hour before injections for habituation.. The cage activity assessment consists of placing the mice in a transparent box which is placed between three infrared sensors (two on the cage’s side and one in its front) that count how many times the mice cross the infrared beams. The times of beams crossed in each 30 min were counted over a period of 24 h and used as a locomotor activity measurement. In addition, we also compared the total number of beams crossed during the day and night period. For this test, we used Veh (n = 10), OS (n = 9), WIN (n = 11), OS + WIN (n = 8).

C57BL/6J mice [2] = experiment: Open Field (OF); assay type: in vivo, mouse; conditions: i.p., WIN 0.5 mg/kg
Experimental: as §1, §2
Open Field (OF): One day after the cage activity test, mice were tested in the OF paradigm. The OF aimed to test the OS, WIN, and OS + WIN effect on animal locomotion and exploratory behavior. Animals were placed in the test room one hour before starting the test. For the OF, animals were placed in a plexiglass box (60 × 60 × 60 cm) divided into three zones (center, periphery, and corners) for 10 min and left free to explore. Total distance and time in zones were counted. Here, more time in the center meant an anxiolytic effect, and a higher distance walking meant an increase in locomotor activity. For this test, we used Veh (n = 8), OS (n = 10), WIN (n = 7), OS + WIN (n = 8).

C57BL/6J mice [3] = experiment: Morris Water Maze (MWM); assay type: in vivo, mouse; conditions: i.p., WIN 0.5 mg/kg
Experimental: as §1, §2
Morris Water Maze (MWM): MWM [32] was used to assess the effects of OS, WIN, and OS + WIN in memory one day after the EPM test. MWM is a gold standard test to assess learning and memory consisting of 10 days of training and two probe trials in a pool with water at a temperature of 26 °C, with one submersed platform invisible to mice. Each mouse could try to find the platform for 100 s, four times per day, with an inter-trial interval of 15–30 min. In each trial, animals were released randomly from each of the four starting positions. This protocol of training was repeated for ten days (training sessions). The platform was removed on the 6th and 11th days, and the animals were left free to swim for 100 s (probe trials). Right after the first probe trial (day 6), animals were trained again with the platform at the same place. During the training sessions, the mean latency to find the platform for the session was calculated for each animal as the average of the four trials of the day. During the probe trials, the pool was divided into four equal virtual quadrants, and the time spent in the target quadrant (TQ) (i.e., the quadrant where the platform was located during the training sessions) was assessed as a measure of memory retention. For this test, we used Veh (n = 9), OS (n = 8), WIN (n = 8), OS + WIN (n = 14).

## Cc1c(C(=O)c2cccc3ccccc23)c2cccc3c2n1[C@H](CN1CCOCC1)CO3 [WIN55,212-2, reference compound]
Chimeric CB1/2 receptor
  Receptor activation: activated by WIN55,212-2 in a concentration-dependent manner
C57BL/6J mice [1]
  Cage activity (beam crossings) 2 h after the beginning of night phase: did not change the activity
C57BL/6J mice [2]; OS 2 mg/kg, 10 min test
  Total distance walked in open field (locomotion): neither OS nor WIN affected locomotion
C57BL/6J mice [2]
  Time spent in the periphery of open field compared to the control: spent less time in the periphery
C57BL/6J mice [3]; OS 2 mg/kg, days 3, 4, 5, 6 and 8
  Time to find the platform in training sessions vs control: performed significantly worse than the control
C57BL/6J mice [3]
  Time spent in the target quadrant (TQ), first probe trial: ~ 25%
